Results as given in ChEMBL document CHEMBL1201862, “PubChem BioAssay data set” (2004).
Activity calls are given as the source filed them.

Assays:
Bcl-2-like protein 10 = Bcl-2-like protein 10 (Homo sapiens, UniProt Q9HD36); test: Bcl-B/TR3 peptide binding disruption – biochemical, fluorescence polarization, FITC-TR3 peptide, selectivity assay for Bfl-1 inhibitor project, primary screen (AID 748);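 also: fluorescence polarization from a fluorescein-labelled TR3 peptide binding purified Bcl-B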
[1] = luciferase reporter signal suppression in cells – H4 neuroglioma cells, luminescence, dose response (AID 1990); format: functional, cell-based
[2] = luciferase reporter signal reduction – luminescence, H4-C neuroglioblastoma cells, dose response (AID 2458); format: functional, cell-based;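 also: H4 neuroglioblastoma cells stably carrying a luciferase reporter gene fusion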
cells = format: functional, cell-based
[3] = Luminescence Cell-Based Dose Response HTS to Identify Inhibitors of 5'UTR Stem-Loop Driven Prion Protein mRNA Translation in H4 Neuroglioblastoma Cells. [Related pubchem assays: 1827 (Project Summary), 1813 (Primary HTS)]; format: functional
[4] = alpha-synuclein stem-loop luciferase translation blockers – H4 neuroglioma cells, luminescence, confirmation (AID 1988); format: functional, cell-based
[5] = alpha-synuclein stem-loop translation blockers – luminescence, H4 neuroglioblastoma cells, dose confirmation, confirmation (AID 2454); format: functional, cell-based;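 also: H4 neuroglioblastoma cells carrying an alpha-synuclein 5'UTR luciferase reporter; potency for inhibition of the luciferase signal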
Hexokinase = Hexokinase (Trypanosoma brucei, UniProt Q38C41); test: Confirmation assay for inhibitors of Trypanosoma brucei hexokinase 1-Analogue-first series. [Related pubchem assays (depositor defined):AID1430, AID1632, AID2516, AID2560, AID2579, AID2600, AID449725, AID492951]; format: functional
Hexokinase, sequence (Q38C41 whole entry): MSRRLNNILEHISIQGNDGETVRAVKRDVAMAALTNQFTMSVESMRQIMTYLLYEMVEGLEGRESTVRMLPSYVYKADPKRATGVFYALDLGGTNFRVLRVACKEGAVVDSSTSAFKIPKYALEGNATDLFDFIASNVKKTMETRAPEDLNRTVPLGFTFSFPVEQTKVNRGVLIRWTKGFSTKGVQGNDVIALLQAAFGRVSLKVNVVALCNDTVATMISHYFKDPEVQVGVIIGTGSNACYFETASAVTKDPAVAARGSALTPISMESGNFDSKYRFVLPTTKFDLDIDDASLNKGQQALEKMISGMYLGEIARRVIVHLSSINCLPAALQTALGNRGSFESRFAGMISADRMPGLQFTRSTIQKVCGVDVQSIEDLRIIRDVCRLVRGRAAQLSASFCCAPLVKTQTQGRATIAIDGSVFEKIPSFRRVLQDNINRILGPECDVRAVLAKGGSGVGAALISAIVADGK

Hexokinase HKDC1 = biological target: T1, Hexokinase HKDC1 (Homo sapiens, UniProt Q2TB90); test: activation of HKDC1 glucose phosphorylation – biochemical, W721R variant, dose response (AID 504730); format: functional
T1 sequence (Q2TB90 whole entry): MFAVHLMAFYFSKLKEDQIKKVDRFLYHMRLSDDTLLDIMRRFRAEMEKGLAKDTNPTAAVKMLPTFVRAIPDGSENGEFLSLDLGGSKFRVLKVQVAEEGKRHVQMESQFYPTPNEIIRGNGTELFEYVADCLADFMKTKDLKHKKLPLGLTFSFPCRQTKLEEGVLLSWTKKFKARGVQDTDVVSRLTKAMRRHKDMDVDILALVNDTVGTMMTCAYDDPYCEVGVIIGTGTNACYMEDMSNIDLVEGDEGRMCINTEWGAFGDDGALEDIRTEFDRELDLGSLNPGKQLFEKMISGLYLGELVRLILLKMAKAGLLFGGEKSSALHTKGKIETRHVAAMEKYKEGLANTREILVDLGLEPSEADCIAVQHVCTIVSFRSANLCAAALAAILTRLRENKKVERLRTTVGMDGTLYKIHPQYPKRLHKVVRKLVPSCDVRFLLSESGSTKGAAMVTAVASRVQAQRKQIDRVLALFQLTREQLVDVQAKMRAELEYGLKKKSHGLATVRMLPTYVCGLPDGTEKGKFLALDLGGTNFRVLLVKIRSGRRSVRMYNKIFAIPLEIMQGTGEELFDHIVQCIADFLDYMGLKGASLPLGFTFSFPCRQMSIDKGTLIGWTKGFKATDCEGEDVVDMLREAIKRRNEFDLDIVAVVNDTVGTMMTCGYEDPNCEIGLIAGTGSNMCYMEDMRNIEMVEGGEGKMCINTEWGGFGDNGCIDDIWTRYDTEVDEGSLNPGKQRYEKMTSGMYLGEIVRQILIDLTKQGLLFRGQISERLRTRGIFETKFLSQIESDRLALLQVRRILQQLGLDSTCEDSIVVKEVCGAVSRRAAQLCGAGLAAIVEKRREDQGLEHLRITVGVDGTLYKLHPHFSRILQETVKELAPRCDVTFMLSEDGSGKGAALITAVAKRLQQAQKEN

[6] = HEK-293T cell viability reduction – luminescence, B-cell screen hits, cytotoxicity control for BCR NF-kB inhibitor project, dose response (AID 489021); format: functional, cell-based;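 also: HEK-293T cells carrying an NF-kB luciferase reporter; cells exposed to compound for about 14 hours before viability readout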
[7] = biological target: T2, Heat shock factor protein 1 (Mus musculus, UniProt P38532); test: enhancement of HSF1-driven luciferase signal – cell-based, NIH3T3, luminescence, dose retest, confirmation (AID 435004); format: functional;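 also: stress induced by proteasome inhibitor MG132 added 30 min after compound; luciferase reporter driven by HSF1 response element in NIH3T3 cells; actives raise luminescence as potentiators of the MG132 stress response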
T2 sequence (P38532 whole entry): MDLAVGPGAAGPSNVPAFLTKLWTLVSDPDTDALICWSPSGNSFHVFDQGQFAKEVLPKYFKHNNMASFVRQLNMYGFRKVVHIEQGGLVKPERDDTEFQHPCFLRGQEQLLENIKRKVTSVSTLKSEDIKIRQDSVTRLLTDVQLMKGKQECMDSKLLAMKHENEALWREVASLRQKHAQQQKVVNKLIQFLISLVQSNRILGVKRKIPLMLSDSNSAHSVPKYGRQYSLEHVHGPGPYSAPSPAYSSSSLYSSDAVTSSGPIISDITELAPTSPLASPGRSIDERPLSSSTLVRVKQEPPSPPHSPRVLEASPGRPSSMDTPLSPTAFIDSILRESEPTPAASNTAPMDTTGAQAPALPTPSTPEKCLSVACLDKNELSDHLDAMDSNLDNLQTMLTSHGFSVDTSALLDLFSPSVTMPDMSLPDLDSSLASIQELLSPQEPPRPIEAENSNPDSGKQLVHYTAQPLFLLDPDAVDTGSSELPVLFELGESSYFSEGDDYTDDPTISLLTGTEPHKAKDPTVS

[8] = biological target: T3, Sphingosine 1-phosphate receptor 4 (Homo sapiens, UniProt O95977); test: Late-stage fluorescence dose response cell-based assay to identify agonists of the Sphingosine 1-Phosphate Receptor 4 (S1P4): purchased compounds EC50. [Related pubchem assays (depositor defined):AID1509, AID1523, AID1563, AID1686, AID1701, AID1801]; format: functional
T3 sequence (O95977 whole entry): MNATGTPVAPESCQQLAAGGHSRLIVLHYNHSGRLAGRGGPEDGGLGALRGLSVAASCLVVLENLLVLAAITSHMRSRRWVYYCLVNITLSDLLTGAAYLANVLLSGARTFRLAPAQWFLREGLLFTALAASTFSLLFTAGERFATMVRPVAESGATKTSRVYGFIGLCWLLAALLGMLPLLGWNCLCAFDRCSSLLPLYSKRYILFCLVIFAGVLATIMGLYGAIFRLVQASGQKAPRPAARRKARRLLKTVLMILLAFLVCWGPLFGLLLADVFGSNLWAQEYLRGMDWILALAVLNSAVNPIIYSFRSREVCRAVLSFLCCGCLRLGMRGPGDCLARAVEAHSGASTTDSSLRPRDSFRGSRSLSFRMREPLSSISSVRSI

Bcl-2-like protein 10, sequence (Q9HD36 whole entry): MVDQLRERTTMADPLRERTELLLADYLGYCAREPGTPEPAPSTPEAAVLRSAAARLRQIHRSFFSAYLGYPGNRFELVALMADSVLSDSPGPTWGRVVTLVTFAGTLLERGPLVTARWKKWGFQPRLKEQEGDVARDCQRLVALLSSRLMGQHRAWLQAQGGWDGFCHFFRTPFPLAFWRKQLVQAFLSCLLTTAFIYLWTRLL

SMILES: Cc1ccc(OCCC(=O)OCC(=O)Nc2ccc(Cl)cn2)cc1
- IC50 (Bcl-2-like protein 10): 72.8 µM (inactive)

SMILES: O=Cc1cn(Cc2ccc([N+](=O)[O-])cc2)c2ccccc12
- EC50 [1]: 5.79 µM (active)
- EC50 [2]: 1.25 µM (active)
- EC50 (cells): 0.466 µM (active)
- EC50 [3]: < 0.1 µM (active)
- EC50 [4]: 0.233 µM (active)
- EC50 [5]: 1.02 µM (active)

SMILES: O=c1c2cc(F)c(F)cc2sn1-c1ccccc1
- IC50 (Hexokinase): 2.23 µM (active)

SMILES: Cc1cc(Oc2ccc(C(C)(C)C)cc2)nc(N2CCOCC2)n1
- EC50 (Hexokinase HKDC1): > 80 µM (inactive)

SMILES: COc1ccc(-c2nn(C)c(=O)c3ccccc23)cc1NS(C)(=O)=O
- IC50 [6]: > 80 µM (inactive)

SMILES: COc1ccc(C(=O)n2nc(-c3ccc(Cl)cc3)nc2N)cc1OC
- EC50 [7]: > 260 µM (inconclusive)
- IC50 [6]: > 80 µM (inactive)

SMILES: Cc1cc(C)cc(OCCOc2ccc(C)nc2[N+](=O)[O-])c1
- EC50 [8]: > 50 µM (inactive)

SMILES: CCc1ccc(C(=O)Nc2cc(Cl)ccc2C(=O)OC)cc1
- IC50 (Hexokinase): > 25 µM (inactive)
